Measurements published in patent US8080529B2, “Macrolides with anti-inflammatory activity” (Glaxo Group Limited, priority 2005, dated 2011).
Like-named read-outs stand apart in the source and are kept apart here.

Tests used:
IL-8 = test: Inhibition of IL-8 production by stimulated human peripheral blood leukocytes in vitro; format: cell-based; settings: for inhibition at 10 µM / inhibition at 50 µM: Homo sapiens, Leukocyte, read-out: Percentage of inhibition of IL-8 production
Method in brief: (§1)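 Values are percentage inhibition of cytokine release versus stimulated leukocytes lacking compound. Human blood leukocytes received 50 μM or 10 μM compound for 2 h before overnight LPS, PMA or zymosan stimulation, and supernatants were assayed by ELISA.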

TNF-α [1] = test: Lipopolysaccharide induced TNF-α production in Balb/cJ mice; format: in vivo; settings: 10 mg/kg intraperitoneally, 30 min before LPS; 90 min after LPS
[2] = tested on: human peripheral blood mononuclear cells (PBMC); test: Effects on human T-cell proliferation in vitro (3H-thymidine incorporation); format: cell-based; settings: for inhibition at 10 µM / inhibition at 50 µM: Homo sapiens, PBMC, read-out: Percentage of inhibition of proliferation of stimulated PBMC
Method: The influence of the various test compounds at two different concentrations (50 μM and 10 μM) on cell proliferation of human peripheral blood mononuclear cells (PBMC) was assessed. […] The cells were pulsed with 1 μCi of ^3H-thymidine (Amersham, USA) per well during the last 18 h of the culture, and were harvested on the 96-well filter (Packard Bioscience, USA) using a multiple cell harvester (Packard, USA). The incorporation of ^3H-thymidine in activated cells were measured using TopCount NXT (Packard, USA). […] The positive control refers to LPS-, PMA- or zymosan-stimulated samples that were not treated with test compounds.

IL-1α = test: Inhibition of IL-1 production by stimulated human peripheral blood leukocytes in vitro; format: cell-based; settings: for inhibition at 10 µM / inhibition at 50 µM: Homo sapiens, Leukocyte, read-out: Percentage of inhibition of IL-1α production
TNF-α [3] = test: Inhibition of TNF-α production by stimulated human peripheral blood leukocytes in vitro; format: cell-based; settings: for inhibition at 10 µM / inhibition at 50 µM: Homo sapiens, Leukocyte, read-out: Percentage of inhibition of TNF-α production
Method in brief: as §1

IL-6 = test: Inhibition of IL-6 production by stimulated human peripheral blood leukocytes in vitro; format: cell-based; settings: for inhibition at 10 µM / inhibition at 50 µM: Homo sapiens, Leukocyte, read-out: Percentage of inhibition of IL-6 production
Method in brief: as §1

Hep G2 = test: Cytotoxicity assay (MTT), Hep G2 cell line; format: cell-based; settings: 24 h
Method in brief: (§2)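 Hep G2 and A549 cells were cultured 24 h at 37° C in RPM medium with test compounds at 50 μM and 12.5 μM. MTT was added for 0.5-2 h and formazan read at 490 nm. Growth value calculated as OD490 treated/OD490 nontreated ×100.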

A549 = test: Cytotoxicity assay (MTT), A549 cell line; format: cell-based; settings: 24 h
Method in brief: as §2

CCC1OC(=O)C(C)C(OC2CC(C)(OC)C(OC(=O)CCN(CC)CC)C(C)O2)C(C)C(OC2OC(C)CC(N(C)C)C2O)C(C)(OC)CC(C)C(=O)NC(C)C(O)C1(C)O (stereo not shown) [Example 8, 4″-O-(3-Diethylamino-propionyl)-6-O-methyl-9a-aza-9a-homoerythromycin A]
Percentage of inhibition of IL-8 production (IL-8; 10 μM, LPS-stimulated PBL): 38%
Percentage of inhibition of IL-8 production (IL-8; 10 μM, PMA-stimulated PBL): 40%
Percentage of inhibition of IL-8 production (IL-8; 10 μM, zymosan-stimulated PBL): 31%
Percentage of inhibition of IL-8 production (IL-8; 50 μM, LPS-stimulated PBL): 79%
Percentage of inhibition of IL-8 production (IL-8; 50 μM, PMA-stimulated PBL): 89%
Percentage of inhibition of IL-8 production (IL-8; 50 μM, zymosan-stimulated PBL): 88%
% inhibition of TNF-α production (plasma) (TNF-α [1]): 93%
Percentage of inhibition of proliferation of stimulated PBMC ([2]; PHA, 10 μM): 96%
Percentage of inhibition of proliferation of stimulated PBMC ([2]; PHA, 50 μM): 100%
Percentage of inhibition of proliferation of stimulated PBMC ([2]; PMA + iono., 10 μM): 37%
Percentage of inhibition of proliferation of stimulated PBMC ([2]; PMA + iono., 50 μM): 99%
Percentage of inhibition of IL-1α production (IL-1α; 10 μM, LPS-stimulated PBL): 66%
Percentage of inhibition of IL-1α production (IL-1α; 10 μM, PMA-stimulated PBL): 71%
Percentage of inhibition of IL-1α production (IL-1α; 10 μM, zymosan-stimulated PBL): 86%
Percentage of inhibition of IL-1α production (IL-1α; 50 μM, LPS-stimulated PBL): 83%
Percentage of inhibition of IL-1α production (IL-1α; 50 μM, PMA-stimulated PBL): 86%
Percentage of inhibition of IL-1α production (IL-1α; 50 μM, zymosan-stimulated PBL): 94%
Percentage of inhibition of TNF-α production (TNF-α [3]; 10 μM, LPS-stimulated PBL): 51%
Percentage of inhibition of TNF-α production (TNF-α [3]; 10 μM, PMA-stimulated PBL): 46%
Percentage of inhibition of TNF-α production (TNF-α [3]; 10 μM, zymosan-stimulated PBL): 87%
Percentage of inhibition of TNF-α production (TNF-α [3]; 50 μM, LPS-stimulated PBL): 85%
Percentage of inhibition of TNF-α production (TNF-α [3]; 50 μM, PMA-stimulated PBL): 87%
Percentage of inhibition of TNF-α production (TNF-α [3]; 50 μM, zymosan-stimulated PBL): 92%
Percentage of inhibition of IL-6 production (IL-6; 10 μM, LPS-stimulated PBL): 16%
Percentage of inhibition of IL-6 production (IL-6; 10 μM, PMA-stimulated PBL): 24%
Percentage of inhibition of IL-6 production (IL-6; 10 μM, zymosan-stimulated PBL): 57%
Percentage of inhibition of IL-6 production (IL-6; 50 μM, LPS-stimulated PBL): 63%
Percentage of inhibition of IL-6 production (IL-6; 50 μM, PMA-stimulated PBL): 100%
Percentage of inhibition of IL-6 production (IL-6; 50 μM, zymosan-stimulated PBL): 80%

CC[C@H]1OC(=O)[C@H](C)[C@@H](O[C@H]2C[C@@](C)(OC)[C@@H](OC(=O)CCN(CC)CC)[C@H](C)O2)[C@H](C)[C@@H](O[C@@H]2O[C@H](C)C[C@H](N(C)C)[C@H]2O)[C@](C)(OC)C[C@@H](C)NC(=O)[C@H](C)[C@@H](O)[C@]1(C)O [Example 3, 4″-O-(3-Diethylamino-Propionyl)-6-O-methyl-8a-aza-8a-homoerythromycin A]
inhibition at 10 µM (IL-8; 10 μM, LPS-stimulated PBL): 48%
inhibition at 10 µM (IL-8; 10 μM, PMA-stimulated PBL): 30%
inhibition at 10 µM (IL-8; 10 μM, zymosan-stimulated PBL): 32%
inhibition at 50 µM (IL-8; 50 μM, LPS-stimulated PBL): 71%
inhibition at 50 µM (IL-8; 50 μM, PMA-stimulated PBL): 22%
inhibition at 50 µM (IL-8; 50 μM, zymosan-stimulated PBL): 16%
Percentage of inhibition of cell growth (Hep G2; 12.5 μM): 0%
Percentage of inhibition of cell growth (Hep G2; 50 μM): 0%
inhibition at 10 µM ([2]; PHA, 10 μM): 2%
inhibition at 50 µM ([2]; PHA, 50 μM): 75%
inhibition at 10 µM ([2]; PMA + iono., 10 μM): 17%
inhibition at 50 µM ([2]; PMA + iono., 50 μM): 81%
inhibition at 10 µM (IL-1α; 10 μM, LPS-stimulated PBL): 87%
inhibition at 10 µM (IL-1α; 10 μM, PMA-stimulated PBL): 73%
inhibition at 10 µM (IL-1α; 10 μM, zymosan-stimulated PBL): 88%
inhibition at 50 µM (IL-1α; 50 μM, LPS-stimulated PBL): 86%
inhibition at 50 µM (IL-1α; 50 μM, PMA-stimulated PBL): 68%
inhibition at 50 µM (IL-1α; 50 μM, zymosan-stimulated PBL): 91%
inhibition at 10 µM (TNF-α [3]; 10 μM, LPS-stimulated PBL): 72%
inhibition at 10 µM (TNF-α [3]; 10 μM, PMA-stimulated PBL): 91%
inhibition at 10 µM (TNF-α [3]; 10 μM, zymosan-stimulated PBL): 76%
inhibition at 50 µM (TNF-α [3]; 50 μM, LPS-stimulated PBL): 81%
inhibition at 50 µM (TNF-α [3]; 50 μM, PMA-stimulated PBL): 83%
inhibition at 50 µM (TNF-α [3]; 50 μM, zymosan-stimulated PBL): 96%
inhibition at 10 µM (IL-6; 10 μM, LPS-stimulated PBL): 56%
inhibition at 10 µM (IL-6; 10 μM, PMA-stimulated PBL): 60%
inhibition at 10 µM (IL-6; 10 μM, zymosan-stimulated PBL): 44%
inhibition at 50 µM (IL-6; 50 μM, LPS-stimulated PBL): 78%
inhibition at 50 µM (IL-6; 50 μM, PMA-stimulated PBL): 66%
inhibition at 50 µM (IL-6; 50 μM, zymosan-stimulated PBL): 74%
Percentage of inhibition of cell growth (A549; 12.5 μM): 0%
Percentage of inhibition of cell growth (A549; 50 μM): 0%
